Assay results as given in ChEMBL document CHEMBL3885881, “DrugMatrix”.

Organism: Rattus norvegicus
Test: DrugMatrix - Regimen: Daily Repeat
Type: toxicity, organism-based, Sprague-Dawley
Set-up: regimen Daily Repeat, gender Male, age 6-8 weeks
Conditions: in vivo, sc, route subcutaneous, […]; for ABSOLUTE BASOPHIL / ABSOLUTE EOSINOPHIL / ABSOLUTE LYMPHOCYTE / ABSOLUTE MONOCYTE / ABSOLUTE SEGMENTED NEUTROPHIL / BASOPHIL / EOSINOPHIL / ERYTHROCYTE COUNT / HEMATOCRIT / HEMOGLOBIN / LEUKOCYTE COUNT / LYMPHOCYTE / MEAN CORPUSCULAR HEMOGLOBIN / MEAN CORPUSCULAR HEMOGLOBIN CONCENTRATION / MEAN CORPUSCULAR VOLUME / MONOCYTE / NEUTROPHIL / NUCLEATED RED BLOOD CELLS / PLATELET COUNT: tissue Blood; for ALANINE AMINOTRANSFERASE / ALBUMIN / ALKALINE PHOSPHATASE / ASPARTATE AMINOTRANSFERASE / BLOOD UREA NITROGEN / CARBON DIOXIDE / CHLORIDE / CHOLESTEROL / CREATINE PHOSPHOKINASE / CREATININE / GLUCOSE / LACTATE DEHYDROGENASE / LIPASE / PHOSPHORUS / POTASSIUM / SODIUM / TOTAL BILIRUBIN / TOTAL PROTEIN / URIC ACID: tissue Plasma
[1] = 18 mg/kg, 120 h, dose level High, time 5 day
[2] = 72 h, dose 1.8 mg/Kg, dose level Low, time 3 day
[3] = 120 h, dose 1.8 mg/Kg, dose level Low, time 5 day

CN(C)c1ccc(C(=C2C=CC(=[N+](C)C)C=C2)c2ccc(N(C)C)cc2)cc1.[Cl-] [GENTIAN VIOLET]
ABSOLUTE BASOPHIL [1]: 0 CELLS/uL
ABSOLUTE EOSINOPHIL [1]: 0 CELLS/uL
ABSOLUTE LYMPHOCYTE [1]: 15601 CELLS/uL
ABSOLUTE MONOCYTE [1]: 1849 CELLS/uL
ABSOLUTE SEGMENTED NEUTROPHIL [1]: 7750 CELLS/uL
BASOPHIL [1]: 0%
EOSINOPHIL [1]: 0%
ERYTHROCYTE COUNT [1]: 5.48 x10E6/uL
HEMATOCRIT [1]: 32.93%
HEMOGLOBIN [1]: 12.37 G/DL
LEUKOCYTE COUNT [1]: 25.2 x10E3/uL
LYMPHOCYTE [1]: 61.67%
MEAN CORPUSCULAR HEMOGLOBIN [1]: 22.57 pg
MEAN CORPUSCULAR HEMOGLOBIN CONCENTRATION [1]: 37.57 G/DL
MEAN CORPUSCULAR VOLUME [1]: 60.17 fL
MONOCYTE [1]: 7.33%
NEUTROPHIL [1]: 31%
NUCLEATED RED BLOOD CELLS [1]: 0 /100WBC
PLATELET COUNT [1]: 1331.67 x10E3/uL
ALANINE AMINOTRANSFERASE [1]: 49 u/L
ALBUMIN [1]: 3.03 G/DL
ALKALINE PHOSPHATASE [1]: 294.67 u/L
ASPARTATE AMINOTRANSFERASE [1]: 116 u/L
BLOOD UREA NITROGEN [1]: 16.33 mg/dL
CARBON DIOXIDE [1]: 30.67 mmol/L
CHLORIDE [1]: 100 MEQ/L
CHOLESTEROL [1]: 62.33 mg/dL
CREATINE PHOSPHOKINASE [1]: 196.33 u/L
CREATININE [1]: 0.16 mg/dL
GLUCOSE [1]: 141.33 mg/dL
LACTATE DEHYDROGENASE [1]: 146.33 u/L
LIPASE [1]: 8 u/L
PHOSPHORUS [1]: 11.3 mg/dL
POTASSIUM [1]: 6.88 MEQ/L
SODIUM [1]: 143.85 MEQ/L
TOTAL BILIRUBIN [1]: 0.13 mg/dL
TOTAL PROTEIN [1]: 5.57 G/DL
URIC ACID [1]: 1.37 mg/dL
ABSOLUTE BASOPHIL [2]: 0 CELLS/uL
ABSOLUTE EOSINOPHIL [2]: 115.33 CELLS/uL
ABSOLUTE LYMPHOCYTE [2]: 15675.67 CELLS/uL
ABSOLUTE MONOCYTE [2]: 309.33 CELLS/uL
ABSOLUTE SEGMENTED NEUTROPHIL [2]: 2499.67 CELLS/uL
BASOPHIL [2]: 0%
EOSINOPHIL [2]: 0.67%
ERYTHROCYTE COUNT [2]: 5.43 x10E6/uL
HEMATOCRIT [2]: 34.87%
HEMOGLOBIN [2]: 12.97 G/DL
LEUKOCYTE COUNT [2]: 18.6 x10E3/uL
LYMPHOCYTE [2]: 84.33%
MEAN CORPUSCULAR HEMOGLOBIN [2]: 23.9 pg
MEAN CORPUSCULAR HEMOGLOBIN CONCENTRATION [2]: 37.2 G/DL
MEAN CORPUSCULAR VOLUME [2]: 64.3 fL
MONOCYTE [2]: 1.67%
NEUTROPHIL [2]: 13.33%
NUCLEATED RED BLOOD CELLS [2]: 0 /100WBC
PLATELET COUNT [2]: 1276.67 x10E3/uL
ALANINE AMINOTRANSFERASE [2]: 46 u/L
ALBUMIN [2]: 3.93 G/DL
ALKALINE PHOSPHATASE [2]: 341 u/L
ASPARTATE AMINOTRANSFERASE [2]: 77.33 u/L
BLOOD UREA NITROGEN [2]: 15 mg/dL
CARBON DIOXIDE [2]: 26.67 mmol/L
CHLORIDE [2]: 102 MEQ/L
CHOLESTEROL [2]: 86.67 mg/dL
CREATINE PHOSPHOKINASE [2]: 247 u/L
CREATININE [2]: 0.19 mg/dL
GLUCOSE [2]: 138.67 mg/dL
LACTATE DEHYDROGENASE [2]: 298.33 u/L
LIPASE [2]: 9.33 u/L
PHOSPHORUS [2]: 11.5 mg/dL
POTASSIUM [2]: 6.51 MEQ/L
SODIUM [2]: 144.73 MEQ/L
TOTAL BILIRUBIN [2]: 0.23 mg/dL
TOTAL PROTEIN [2]: 5.73 G/DL
URIC ACID [2]: 1.4 mg/dL
ABSOLUTE BASOPHIL [3]: 0 CELLS/uL
ABSOLUTE EOSINOPHIL [3]: 0 CELLS/uL
ABSOLUTE LYMPHOCYTE [3]: 17006.67 CELLS/uL
ABSOLUTE MONOCYTE [3]: 546.67 CELLS/uL
ABSOLUTE SEGMENTED NEUTROPHIL [3]: 2113.33 CELLS/uL
BASOPHIL [3]: 0%
EOSINOPHIL [3]: 0%
ERYTHROCYTE COUNT [3]: 5.57 x10E6/uL
HEMATOCRIT [3]: 34.4%
HEMOGLOBIN [3]: 12.93 G/DL
LEUKOCYTE COUNT [3]: 19.67 x10E3/uL
LYMPHOCYTE [3]: 86%
MEAN CORPUSCULAR HEMOGLOBIN [3]: 23.2 pg
MEAN CORPUSCULAR HEMOGLOBIN CONCENTRATION [3]: 37.6 G/DL
MEAN CORPUSCULAR VOLUME [3]: 61.77 fL
MONOCYTE [3]: 2.67%
NEUTROPHIL [3]: 11.33%
NUCLEATED RED BLOOD CELLS [3]: 0 /100WBC
PLATELET COUNT [3]: 1503 x10E3/uL
ALANINE AMINOTRANSFERASE [3]: 51 u/L
ALBUMIN [3]: 3.47 G/DL
ALKALINE PHOSPHATASE [3]: 278 u/L
ASPARTATE AMINOTRANSFERASE [3]: 83.67 u/L
BLOOD UREA NITROGEN [3]: 19 mg/dL
CARBON DIOXIDE [3]: 27.33 mmol/L
CHLORIDE [3]: 105 MEQ/L
CHOLESTEROL [3]: 73.33 mg/dL
CREATINE PHOSPHOKINASE [3]: 310 u/L
CREATININE [3]: 0.35 mg/dL
GLUCOSE [3]: 162 mg/dL
LACTATE DEHYDROGENASE [3]: 102.67 u/L
LIPASE [3]: 9.67 u/L
PHOSPHORUS [3]: 11.3 mg/dL
POTASSIUM [3]: 6.63 MEQ/L
SODIUM [3]: 144.03 MEQ/L
TOTAL BILIRUBIN [3]: 0.13 mg/dL
TOTAL PROTEIN [3]: 5.8 G/DL
URIC ACID [3]: 1.63 mg/dL
